In patent US20150352078A1, “PHARMACEUTICAL COMPOSITION FOR DISEASES CAUSED BY PATHOGENIC MICROORGANISMS SUCH AS CANDIDA” (POLA PHARMA INC., priority 2013, published 2015):
Converted amounts (≈) assume the structure as drawn. Where two headings read alike, the source gives them in different places.

What was measured:
[1] = system: Chlamydia; details: stated as known; cited from earlier work
[2] = system: protozoa; details: stated as known; cited from earlier work
[3] = system: Chlamydia trachomatis (D/UW3/Cx); test: Anti-intracellular parasite action on Chlamydia trachomatis cultured in HeLa 229 host cells, fluorescent staining of inclusion bodies; type: cell-based
Protocol: The anti-intracellular parasite action was investigated by using Chlamydia trachomatis (D/UW3/Cx). That is, Chlamydia trachomatis was cultured in the presence of ×2 dilution series of 8 to 64 μg/ml of luliconazole by using HeLa 229 cells as the host. MEM added with 8% thermally inactivated FBS, to which 1 μg/ml of cyclohexamide was added, was used as the medium, and the culture was performed for 72 hours in 5% carbon dioxide gas at 37° C. After the culture, Chlamydia inclusion bodies were subjected to the fluorescent staining to be apple green with Chlamydia FA reagent “Seiken” (produced by DENKA SEIKEN Co., Ltd.), and the observation was performed by using a fluorescence microscope.

[4] = system: Candida albicans; test: In vitro antifungal activity on Candida albicans, broth microdilution method; type: cell-based; details: 48 hours, 80% growth inhibition, turbidity at 630 nm, read-out: minimum growth inhibitory concentration (MIC80)
Protocol: The minimum growth inhibitory concentration (MIC) was measured by means of the broth microdilution method (medicament ×2 dilution series) based on the use of […] medium (pH 7.0) buffered with 0.165 M morpholinopropanesulfonic acid. 100 μL of test microorganism yeast cells/sterilized physiological saline suspensions (1 to 5×10^3 cells/mL) and 100 μL of media previously added with respective compounds and medium not added with, compounds as a control were dispensed into respective wells of flat-bottom microculture plate.

[5] = system: Trichomonas vaginalis; test: Effect on growth of clinically isolated Trichomonas vaginalis in Trichomonas medium F (Neutral Red colour, microscopic observation); type: cell-based; details: for MIC: Trichomonas vaginalis, 72 hours culture, read-out: minimum growth inhibitory concentration (MIC); for Color: Neutral Red marker (yellow = acid production/growth); for Color / Result of microscopic observation: 37° C., 72 hours; for Result of microscopic observation: inverted microscope
Protocol: The effect on Trichomonas vaginalis was investigated for luliconazole of the compound represented by the general formula (1). That is, 5×10^6 cells of clinically isolated Trichomonas vaginalis were seeded in Trichomonas medium F (6.5 mL, contained in tube) produced by Fujiyakuhin Co., Ltd. containing Neutral Red as a marker, and the preculture was carried out for 72 hours (preculture). It was confirmed that Trichomonas grew, the acid was actively produced, and Neutral Red was changed to be yellow. After that, the preculture was added to Trichomonas medium F by every 100 μL in order to carry out the main culture, to which 0.5 mL of a test solution was added. In this situation, the number of protozoas in the solution of preculture was 1.5×10^5 cells/mL. Three series of test solutions were prepared, in which the luliconazole concentrations were 200 μM (final concentration: 35.2 μM), 100 μM (final concentration: 17.6 μM), and 50 μM (final concentration: 8.8 μM), as luliconazole dissolved in 10% methanol saline solution. 0.5 mL of vehicle was added as a control. As for the vehicle, 10% methanol saline solution (final concentration: 0 μM) was used. Stirring was sufficiently performed after the addition, followed by culturing at 37° C. for 72 hours. After the completion of the cultivation, the color was discriminated, and the state of protozoas was observed by using an inverted microscope.
The same or equivalent investigation as that of Example 1 was performed while changing luliconazole to lanoconazole.

| MIC80 ([4]; strain IFO0197, 35° C.) | MIC80 ([4]; strain IFO0579, 35° C.) | MIC80 ([4]; strain IFO1269, 35° C.) | MIC80 ([4]; strain TIMM3164, 35° C.) | MIC [5] | Compound | anticlamydial action [1] | antiprotozoal action [2] | Color ([5]; final concentration 8.8 μM) | Color ([5]; final concentration 17.6 μM) | Result of microscopic observation ([5]; final concentration 17.6 μM) | Color ([5]; final concentration 35.2 μM) | Result of microscopic observation ([5]; final concentration 35.2 μM) | also measured |
| --- | --- | --- | --- | --- | --- | --- | --- | --- | --- | --- | --- | --- | --- |
|  |  |  |  |  | CCC(C)(C)c1ccc(CC(C)CN2C[C@@H](C)O[C@@H](C)C2)cc1 (some centres unmarked) [amorolfin] | do not have | do not have |  |  |  |  |  |  |
| 0.0625 µg/mL (≈ 0.176 µM) | 0.0313 µg/mL (≈ 0.0883 µM) | 0.0625 µg/mL (≈ 0.176 µM) | 0.5 µg/mL (≈ 1.41 µM) | ~8.8 µM (≈ 3.12 µg/mL) | N#C/C(=C1/SC[C@@H](c2ccc(Cl)cc2Cl)S1)n1ccnc1 [Luliconazole, (R)-(−)-(E)-[4-(2,4-dichlorophenyl)-1,3-dithiolane-2-ylidene]-1-imidazolyl acetonitrile] |  |  | yellow | red | no protozoa was observed | red | no protozoa was observed | MIC ([3]; Chlamydia trachomatis, HeLa 229 host cells, 72 hours culture, read-out: MIC with respect to Chlamydia trachomatis): 32 µg/mL (≈ 90.3 µM); observation result of Chlamydia inclusion bodies ([3]; treatment with 8 μg/mL, FIG. 1 panel (A)): dot-shaped Chlamydia inclusion bodies stained apple green were observed; observation result of Chlamydia inclusion bodies ([3]; treatment with 16 μg/mL, FIG. 1 panel (B)): dot-shaped Chlamydia inclusion bodies stained apple green were observed; observation result of Chlamydia inclusion bodies ([3]; treatment with 32 μg/mL, FIG. 1 panel (C)): No inclusion body was found; growth of Trichomonas ([5]; at 8.8 μM): inhibits the growth; Result of microscopic observation ([5]; final concentration 8.8 μM): protozoas were observed slightly |
|  |  |  |  |  | c1ccc(-c2ccc(C(c3ccccc3)n3ccnc3)cc2)cc1 (centres unmarked) [bifonazole] | do not have | do not have |  |  |  |  |  |  |
|  |  |  |  |  | CN(Cc1ccc(C(C)(C)C)cc1)Cc1cccc2ccccc12 [butenafine] | do not have | do not have |  |  |  |  |  |  |
|  |  |  |  |  | Clc1ccc(COC(Cn2ccnc2)c2ccc(Cl)cc2Cl)c(Cl)c1 (centres unmarked) [miconazole] | do not have | do not have |  |  |  |  |  |  |
| 0.125 µg/mL (≈ 0.391 µM) | 0.0625 µg/mL (≈ 0.195 µM) | 0.0625 µg/mL (≈ 0.195 µM) | 0.5 µg/mL (≈ 1.56 µM) | ~17.6 µM (≈ 5.63 µg/mL) | N#C/C(=C1/SCC(c2ccccc2Cl)S1)n1ccnc1 (centres unmarked) [Lanoconazole, 4-(2-chlorophenyl)-1,3-dithiolane-2-ylidene-1-imidazolyl acetonitrile] |  |  | yellow | red | protozoas were observed slightly | red | no protozoa was observed | growth of Trichomonas ([5]; no concentration stated): inhibits the growth |
